Measurements as given in patent US12262990B2, “Methods and materials for prolonged sweat stimulation” (priority 2016, dated 2025).

Assays:
[1] = target: acetylcholinesterase (AChE) (Homo sapiens, UniProt P22303); details: in words; cited from earlier work
[2] = system: skin; details: cited from earlier work
[3] = system: skin of Persons A and B; test: Example 1: iontophoretic sweat stimulation on two persons, followed by skin impedance; format: in vivo, human; details: for duration of sweat stimulation from a single dose: about 40 mC/cm^2, estimated 0.142 mg, skin impedance
Method: (§1) Sweat was stimulated on two persons (A and B) using for each person a current of 0.5 mA and a charge of 75 mC applied over a total stimulated area of 1.9 cm^2 for a time of 150 seconds. Thus, the total charge density was 75 mC/1.9 cm^2 or about 40 mC/cm^2, and the estimated dose of carbachol delivered to the skin was 0.142 mg. The charge density and stimulant dose estimates may vary based on other ionic impurities that are also dosed (e.g., sodium dosed could decrease the amount of carbachol dosed). The effect of the dosed ionic impurities can be estimated or quantified in any given case by analytical chemistry techniques. […] The stimulated area was divided among two circular test sites that were approximately 1 inch apart. Skin impedance was measured using a Gamry Potentiostat using 2 kHz and 1 V peak to peak sinewave. The electrical resistance results are plotted in FIGS. 2A-2D and 3A-3D for Persons A and B, respectively (the data has been separated into four charts for each person for the sake of clarity). The baseline plots were measured at a control site (i.e., non-stimulated skin) positioned within 1 inch of the stimulation site.

[4] = system: skin of Persons A and B; test: Example 1: sweat rates by visual and gravimetric (filter paper) testing; format: in vivo, human; details: for Sweat Generation Rate: single dose about 40 mC/cm^2
Method: as §1
Sweat rates in nL/min/gland were also quantified using visual testing and gravimetric testing. Results from Person B are shown in FIG. 4 for a skin site of about 1 cm^2 of skin at 25 hours after stimulation. Approximately 130 active glands were counted per cm^2. Filter papers were weighed, placed on stimulated and control sites for 10 minutes under a plastic wrap to prevent evaporation, and immediately weighed again, and then sweat generation rates were calculated. […] The data for the stimulated sites 1 and 2 (paper measurements taken from each of the two stimulation areas) is shown in Table 2.

[5] = system: skin of 8 subjects; test: Example 2: iontophoretic sweat stimulation on 8 subjects, gravimetric sweat rate; format: in vivo, human
Source text: On 8 subjects, sweat was stimulated utilizing carbachol four times as detailed in Table 4 and one additional time utilizing pilocarpine. The stimulated area was divided among two circular test sites with areas of 0.88 cm^2 that were approximately 1 inch apart, which provides a total stimulation area of 1.76 cm^2. The carbachol doses in Table 4 are shown as percentages of the applied charge density compared to the charge density of pilocarpine applied by the commercial Wescor Nanoduct product, which is a charge density of 42 mC/cm^2. The pilocarpine was dosed over 150 seconds using a current of 0.28 mA/cm^2 and a charge density of 42 mC/cm^2, which delivered approximately 90.65 μg/cm^2.
Sweat rate was determined by a gravimetric test. Filter papers were weighed, placed on stimulated and control sites for 10 minutes under a specially designed acrylic holder that prevented any wicking of sweat from neighboring areas and prevented evaporation. The papers were immediately weighed again, and then sweat generation rates were calculated. The results from the gravimetric testing are plotted in FIGS. 4-6. Additionally, three subjects received three consecutive doses of 12.5% carbachol once the sweat rate had fallen below 1 nL/min/gland. The results from the repeated stimulation testing of subjects 1-3 are plotted in FIGS. 7A-7C, respectively.

[6] = system: Muscarinic receptor; details: class symbols, key not given; cited from earlier work
[7] = system: Nicotinic receptor; details: class symbols, key not given; cited from earlier work

acetylcholinesterase (AChE), sequence (P22303 32-614, species assumed): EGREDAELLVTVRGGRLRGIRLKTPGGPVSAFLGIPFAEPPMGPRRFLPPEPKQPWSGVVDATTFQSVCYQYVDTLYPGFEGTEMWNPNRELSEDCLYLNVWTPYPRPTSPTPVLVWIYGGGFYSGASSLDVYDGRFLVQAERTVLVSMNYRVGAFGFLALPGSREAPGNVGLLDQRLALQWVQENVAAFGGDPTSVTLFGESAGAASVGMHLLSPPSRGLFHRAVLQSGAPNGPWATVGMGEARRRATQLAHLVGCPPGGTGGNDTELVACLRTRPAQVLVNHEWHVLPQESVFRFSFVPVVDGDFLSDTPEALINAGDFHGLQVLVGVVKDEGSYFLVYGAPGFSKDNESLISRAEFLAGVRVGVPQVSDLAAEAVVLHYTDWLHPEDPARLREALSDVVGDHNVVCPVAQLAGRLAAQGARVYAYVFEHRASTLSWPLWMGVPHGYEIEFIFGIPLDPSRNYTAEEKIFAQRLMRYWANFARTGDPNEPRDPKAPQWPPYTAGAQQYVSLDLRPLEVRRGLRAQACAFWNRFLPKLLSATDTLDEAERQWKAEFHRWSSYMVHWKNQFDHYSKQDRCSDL

## CC(=O)OC(C)C[N+](C)(C)C (stereo not shown) [Methacholine]
[1]
  metabolism by acetylcholinesterase (AChE): metabolized much more slowly

## CC[C@@H]1C(=O)OC[C@@H]1Cc1cncn1C [Pilocarpine]
[2]; charge density of 40 mC/cm^2, for 90 minutes
  average sweat rate: 1-4 nL/min/gland
[2]; charge density of 40 mC/cm^2, on average
  duration of sweat response: 90 min

## C[N+](C)(C)CCOC(N)=O [Carbachol]
[3]; Person A
  duration of sweat stimulation from a single dose: at least 31 hours
[3]; both Persons A and B
  duration of sweat stimulation from a single dose: at least 24 hours
[3]; lower charge densities than about 40 mC/cm^2
  duration of sweat generation: 24 h
[4]; 40 mC/cm^2 charge density, for 24 hours
  sweat rate: greater than 1 nL/min/gland
[4]; Person B, skin site of about 1 cm^2, 25 hours after stimulation
  active glands counted: Approximately 130 per cm^2
[4]; Subject A, Site 1, 4 hours after stimulation
  Sweat Generation Rate: 6.4 nl/min/gland
[4]; Subject A, Site 1, 23 hours after stimulation
  Sweat Generation Rate: 3.3 nl/min/gland
[4]; Subject A, Site 2, 4 hours after stimulation
  Sweat Generation Rate: 4.6 nl/min/gland
[4]; Subject A, Site 2, 23 hours after stimulation
  Sweat Generation Rate: 3.1 nl/min/gland
[4]; Subject B, Site 1, 5 hours after stimulation
  Sweat Generation Rate: 8.3 nl/min/gland
[4]; Subject B, Site 1, 23 hours after stimulation
  Sweat Generation Rate: 0.3 nl/min/gland
[4]; Subject B, Site 2, 5 hours after stimulation
  Sweat Generation Rate: 9.4 nl/min/gland
[4]; Subject B, Site 2, 23 hours after stimulation
  Sweat Generation Rate: 2.7 nl/min/gland
[4]; charge density of less than 40 mC/cm^2
  stimulated sweat amount: greater than 1,400 nL/gland/dose
[4]; for 24 hours, half the dose
  average sweat rates observed: greater than 2 nL/min/gland
[5]; 5 out of 8 subjects, single 12.5% dose (5.25 mC/cm^2)
  duration of stimulated sweating response of greater than 0.1 nL/min/gland: greater than 8 hours
[5]; 8 subjects, in words
  sustained sweating following a single iontophoretic dose, compared with pilocarpine: much longer than commonly observed for pilocarpine
[5]; four of the 8 subjects
  duration of sweating responses: greater than 24 hours
[5]; half of the subjects, single 100% dose (42 mC/cm^2)
  duration of sweating at greater than 1 nL/min/gland: greater than 24 hours
[5]; subjects e, g, h, 100% dosage (42 mC/cm^2)
  duration of sweating at greater than 1 nL/min/gland: greater than 7 hours
[5]; three of the 8 subjects
  duration of sweating responses: greater than 48 hours
[6]
  Receptor Activity Muscarinic: strong
[7]
  Receptor Activity Nicotinic: strong
[1]
  metabolism by acetylcholinesterase (AChE): metabolized much more slowly

## CC(=O)OCC[N+](C)(C)C [Acetylcholine]
[1]
  metabolism by acetylcholinesterase (AChE): rapidly metabolized
